Results reported in patent US11986450B2, “Methods and compositions for treating infection and inflammation with selenocyanate” (National Jewish Health, priority 2017, dated 2024).

Assays:
P. aeruginosa: AMT0009L = experiment: Viability after HOSCN exposure; settings: late disease antibiotic-resistant CF isolate
P. aeruginosa: AMT0294L = experiment: HOSCN reductase activity
P. aeruginosa: AMT0058L = experiment: Viability after HOSCN exposure; settings: late disease antibiotic-resistant CF isolate
[1] = molecular target: recombinant E. coli Cys-TrxR (Escherichia coli, UniProt P0A9P4); experiment: Kinetic analysis of HOSCN metabolism and inhibition; assay type: biochemical
Description: FIGS. 3A-3B. Kinetic analysis of HOSCN metabolism by recombinant mouse Sec-TrxR and recombinant E. coli Cys-TrxR. […] Sec-TrxR forms that lack a selenocysteine (Sec489Cys) or truncated by the last 8 amino acids (D8) had diminished activity.

[2] = molecular target: purified E. coli Cys-TrxR (Escherichia coli, UniProt P0A9P4); experiment: Sulfenic acid (dimedone label) formation, western blot; assay type: biochemical; settings: 5 minutes exposure; reversible by NAC
Description: FIG. 15. Western blot of sulfenic acid (dimedione label) formation on purified E. coli Cys-TrxR after 5 minutes HOSCN exposure (molar ratios label each lane) or plus 1 minute PBS or N-acetylcysteine (NAC). For lane 8, H2O2 was used instead of HOSCN.
HOSCN is an interesting oxidant due to its affinity for only very acidic thiol groups on proteins (Barrett, T. J., et al. (2012) Inactivation of thiol-dependent enzymes by hypothiocyanous acid: role of sulfenyl thiocyanate and sulfenic acid intermediates. Free Radic Biol Med 52, 1075-1085). This property of HOSCN allows it to diffuse much easier to distant targets. Cys-TrxR has two cysteine residues in its active site that are acidic and it is expected that HOSCN oxidizes them as part of its mechanism of inactivation. Data has shown that dimedone labels sulfenic acid residues in E. coli Cys-TrxR upon selective thiol oxidation by HOSCN (FIG. 15). […] This probe can be used in tandem with western blotting and LC-MS approaches to characterize thiol oxidation of bacterial Cys-TrxRs. Although previous studies have looked at potential bacteria targets for oxidative inactivation by oxidants produced by haloperoxidases, Cys-TrxR was not previously identified (Tenovuo, J., and Pruitt, K. M. (1984) Relationship of the human salivary peroxidase system to oral health. J Oral Pathol 13, 573-584).

P. aeruginosa: PAO1 = experiment: Viability after HOSCN exposure
P. aeruginosa: AMT0027L = experiment: Viability after HOSCN exposure; settings: late disease antibiotic-resistant CF isolate
B. multivorans 41 = experiment: Bacterial sensitivity towards HOSCN killing; assay type: cell-based, Burkholderia cepacia complex (BCC); settings: B. multivorans 41, CF sputum isolate; HOSCN flux for 2 hours, GOX/LPO/SCN system, pH 7.4
Description: (§1) FIGS. 11A-11D. […] A lactoperoxidase (LPO) system was used to generate increasing fluxes of either HOSCN or HOSeCN in presence of 400 μM of either ^−SCN or ^−SeCN. LPO in the presence of a hydrogen peroxide generating system (glucose oxidase, GOX) can convert both thiocyanate and selenocyante to their respective hypopseudohalous acid species (HOSCN and HOSeCN) that are biocides. […] Bacterial inoculums (10^6 colony forming units, CFU) were incubated with host defense system for 2 hours at room temperature and bacteria were plated on LB agar plates and cell viability was determined by dilution and counting CFUs.
(§2) LPO in the presence of a hydrogen peroxide generating system (glucose oxidase, GOX) can convert both thiocyanate and selenocyante to their respective hypopseudohalous acid species (HOSCN and HOSeCN) that are biocides. […] Bacterial inoculums (10^6 colony forming units, CFU) were incubated with host defense system for 2 hours at room temperature and bacteria were plated on LB agar plates and cell viability was determined by dilution and counting CFUs. Lethal concentrations that kill 50% of bacteria (LC50) were determined by non-linear curve fitting the data.
(§3) Bacteria were incubated for 2 hour with LPO, ^−SCN or SeCN, glucose and increasing amounts of GOX. The flux (HOX) of either HOSCN or HOSeCN was determined from standard curves of GOX/LPO and either HOSCN or HOSeCN. LC50 values were determined by curve fitting the data with nonlinear regression of log (agonist) vs normalized response.

B. vietnameisis = experiment: Bacterial sensitivity towards HOSCN killing; assay type: cell-based, Burkholderia cepacia complex (BCC); settings: HOSCN flux for 2 hours, GOX/LPO/SCN system, pH 7.4
Description: as §1, §2, §3

B. cenocepacia = experiment: Bacterial sensitivity towards HOSCN killing; assay type: cell-based, Burkholderia cepacia complex (BCC); settings: CF sputum isolate, HOSCN flux for 2 hours, GOX/LPO/SCN system, pH 7.4
Description: as §1, §2, §3

B. dolsa = experiment: Bacterial sensitivity towards HOSCN killing; assay type: cell-based, Burkholderia cepacia complex (BCC); settings: CF sputum isolate, HOSCN flux for 2 hours, GOX/LPO/SCN system, pH 7.4
Description: as §1, §2, §3

[3] = Viability after HOSCN exposure; settings: human, human bronchial epithelial (16HBE) cells
MRSA 43 = experiment: Bacterial sensitivity towards HOSCN killing; assay type: cell-based, methicillin-resistant Staphylococcus aureus (MRSA); settings: MRSA 43, CF sputum isolate; HOSCN flux for 2 hours, GOX/LPO/SCN system, pH 7.4
Description: as §1, §2, §3

MRSA 46 = experiment: Bacterial sensitivity towards HOSCN killing; assay type: cell-based, methicillin-resistant Staphylococcus aureus (MRSA); settings: MRSA 46, CF sputum isolate; HOSCN flux for 2 hours, GOX/LPO/SCN system, pH 7.4
Description: as §1, §2, §3

MRSA 44 = experiment: Bacterial sensitivity towards HOSCN killing; assay type: cell-based, methicillin-resistant Staphylococcus aureus (MRSA); settings: MRSA 44, CF sputum isolate; HOSCN flux for 2 hours, GOX/LPO/SCN system, pH 7.4
Description: as §1, §2, §3

MRSA 45 = experiment: Bacterial sensitivity towards HOSCN killing; assay type: cell-based, methicillin-resistant Staphylococcus aureus (MRSA); settings: MRSA 45, CF sputum isolate; HOSCN flux for 2 hours, GOX/LPO/SCN system, pH 7.4
Description: as §1, §2, §3

[4] = test system: Human bronchiolar lung cells (16HBE); experiment: Lung cell viability (LDH release) after HOSCN generation; assay type: cell-based; settings: 2 hrs, about 120 μM/hr, viability 24 hrs later
Description: FIGS. 4A-4B. […] Studies were conducted under similar conditions that generated about 120 μM/hr of either HOCl or HOSCN. (FIG. 4A) Human bronchiolar lung cells (16HBE) or (FIG. 4B) Pseudomonas aeruginosa (PA01) were treated for 2 hrs with glucose oxidase (GOX) system (generates H2O2), enzyme alone (MPO or LPO), or full system (enzyme+GOX), or full system with […]. Viability was assessed 24 hrs later by lactate dehydrogenase release for lung cells or determination of colony forming units (CFUs) for bacteria.

Chain of recombinant E. coli Cys-TrxR (P0A9P4 whole entry, the tested form may be a part): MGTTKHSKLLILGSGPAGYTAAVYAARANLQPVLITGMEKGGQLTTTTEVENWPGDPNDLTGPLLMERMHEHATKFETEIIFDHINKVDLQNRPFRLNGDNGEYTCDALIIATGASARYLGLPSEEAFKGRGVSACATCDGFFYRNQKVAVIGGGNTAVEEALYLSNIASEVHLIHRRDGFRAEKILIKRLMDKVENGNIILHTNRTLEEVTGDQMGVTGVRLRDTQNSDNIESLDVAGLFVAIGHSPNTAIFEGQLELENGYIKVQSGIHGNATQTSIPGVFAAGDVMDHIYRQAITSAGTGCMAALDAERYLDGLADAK
Chain of purified E. coli Cys-TrxR (P0A9P4 whole entry): as the sequence (P0A9P4 whole entry, the tested form may be a part) above

In the case of N#CSO [HOSCN, hypothiocyanite], the “Viability (%)” value (P. aeruginosa: AMT0009L) is reported as 4.2 ± 2.1%, the “Apparent Vmax (HOSCN reductase activity)” value (P. aeruginosa: AMT0294L) is reported as “ND^c (No activity detected. Limit of detection = 0.5 nmol mg^−1 min^−1)” and the “Viability (%)” value (P. aeruginosa: AMT0058L) is reported as 0.7 ± 0.4%. The IC50 [1] was 2750 nM, the HOSCN metabolism activity ([1]; similar conditions) was “no measurable activity” and the “Oxidation of Cys-TrxR” value [2] was “rapidly oxidized”. For the same molecule, the “Viability (%)” value (P. aeruginosa: PAO1) was 0%, the “Viability (%)” value (P. aeruginosa: AMT0027L) was 0% and the “HOSCN IC50” value (B. multivorans 41) was 18 µM/h. For the same molecule, the “HOSCN IC50” value (B. vietnameisis) was 64 µM/h, the “HOSCN IC50” value (B. cenocepacia) was 59 µM/h and the “HOSCN IC50” value (B. dolsa) was 79 µM/h. The viability [3] was 96.3 ± 1.6%, the “HOSCN IC50” value (MRSA 43) was 450 µM/h and the “HOSCN IC50” value (MRSA 46) was 10 µM/h. The “HOSCN IC50” value (MRSA 44) was 260 µM/h, the “HOSCN IC50” value (MRSA 45) was 24 µM/h and the Lung cell viability [4] was “spares host lung epithelial cells”.
